Tests used:
collagenase = experiment: Collagenase production inhibition test in human fibroblasts; type: cell-based; settings: 10^−4 M tocopherol or EGCG, 24 hours, untreated group = 100
Method: The activity of inhibiting collagenase production of the soybean leaf extracts of stages VC, V2, V4, R2, R4, R6 and R7 prepared in Example 1 was compared with those of tocopherol (Comparative Example 1) and EGCG (Comparative Example 2). Tocopherol and EGCG are known to prevent skin aging by regenerating epidermal cells.
Human fibroblasts (Cascade Biologics, Portland, Oreg., USA) were added to a 96-well microtiter plate containing Dulbecco's modified Eagle's medium (DMEM) supplemented with 2.5 wt % fetal bovine serum, at 5,000 cells/well, and cultured to about 90% confluence. Then, after culturing in serum-free DMEM for 24 hours and treating with 100 μg/mL of each of the soybean leaf extracts of stages VC, V2, V4, R2, R4, R6 and R7 prepared in Example 1 or 10^−4 M tocopherol or EGCG (Sigma Aldrich) for 24 hours, the cell culture was harvested.
The production of collagenase in the cell culture harvested was measured using a collagenase measuring system (Amersham Pharmacia, USA). […]
A absorbance of a cell culture obtained without treating with the composition was used as a control group. That is to say, the expression level of collagenase in the group treated with the test substance was calculated relative to that of the untreated group as 100.
Collagenase expression level (%)=Absorbance of group treated with test substance/Absorbance of control group×100 [Equation 1]

[1] = Antioxidative activity test based on DPPH reduction; type: biochemical; settings: sample concentration at which absorbance at 540 nm decreased by 50%; 100 μM DPPH, 37° C., 30 minutes
Method: In order to investigate the antioxidative activity of the soybean leaf extracts of stages VC, V2, V4, R2, R4, R6 and R7 prepared in Example 1, the effect of inhibiting the oxidation of the free radical 1,1-diphenyl-2-picrylhydrazyl (DPPH) was compared by measuring the change in absorbance caused by reduction of DPPH.
190 μL of a 100 μM (in ethanol) DPPH solution and each of the soybean leaf extracts of stages VC, V2, V4, R2, R4, R6 and R7 obtained in Example 1 and 10,000 ppm Trolox (positive control), a synthetic antioxidant are prepared at a concentration of 10,000 ppm, diluted to a final concentration of 500 ppm, 250 ppm, 125 ppm, 62.5 ppm, 31.25 ppm or 15.63 ppm. 10 μL of each of them were mixed to prepare a reaction solution, and absorbance was measured at 540 nm after incubation at 37° C. for 30 minutes. IC50 means the sample concentration when the absorbance was decreased by 50% due to the added sample.

[2] = Irritation test (pricking, flushing) on the face of 15 panels sensitive to irritation; type: in vivo
Method: Retinol as a known antiaging substance and the autumn soybean leaf (stage R7) extract as an active ingredient of the present disclosure were tested comparatively for irritation by 15 panels who are sensitive to irritation such as pricking, flushing, etc.
The panels were asked to apply 0.5 mL of retinol (purchased from Sigma) or the autumn soybean leaf extract obtained in Example 1 (1 mg/mL) randomly on each face and score between 0 and 3.0 points with 0.1-point intervals.
1.1-2.0: Moderate irritation.
2.1-3.0: Severe irritation.

[3] = score 0 to 3.0 points, 0.5 mL applied on face, extract 1 mg/mL, 15 panels

SMILES: O=C(O[C@@H]1Cc2c(O)cc(O)cc2O[C@@H]1c1cc(O)c(O)c(O)c1)c1cc(O)c(O)c(O)c1 [EGCG (Comparative Example 2), EGCG]
- Collagenase expression level (%) (collagenase): 61%

SMILES: Cc1c(C)c2c(c(C)c1O)CC[C@@](C)(CCC[C@H](C)CCC[C@H](C)CCCC(C)C)O2 [Tocopherol (Comparative Example 1), tocopherol]
- Collagenase expression level (%) (collagenase): 74%

SMILES: Cc1c(C)c2c(c(C)c1O)CCC(C)(C(=O)O)O2 (stereo not shown) [Trolox (positive control), Trolox]
- IC50 (ppm) [1]: 38 ppm

SMILES: CC1=C(/C=C/C(C)=C/C=C/C(C)=C/CO)C(C)(C)CCC1 [Retinol]
- Irritation such as pricking and flushing (in words) ([2]; grade by the scoring standard, 0.5 mL applied on face): slight irritation
- Mean (irritation score) ([2]; mean of pricking and flushing scores, 0 to 3.0 points): 0.65
- Flushing (irritation score) [2, 3]: 0.42
- Pricking (irritation score) [2, 3]: 0.87

Source: patent US20170135948A1, “COMPOSITION COMPRISING EXTRACT OF AUTUMN SOYBEAN LEAVES” (AMOREPACIFIC CORPORATION, priority 2014, published 2017)
